Here are results for eleven compounds from paper PMC13366377 (Acta Pharmaceutica Sinica. B, 2025).

Structures are written as SMILES. Positions of bridges follow the written chain, without caps; N, C: chain ends. Non-standard residues stand in square brackets, D forms with d. Residues, ends and D or L forms follow the SMILES beside them. pGlu = O=C1CC[C@@H](C(=O)O)N1

The target in data set [1] is hα7 nAChR (Homo sapiens, UniProt P36544). Put plainly: cell-based.
Data set [2] addresses α7^EM nAChR (Homo sapiens, UniProt P36544). Nature of the data set: cell-based. It is filed as cell-based.
Data set [3] addresses α7^EM nAChR E184Q (Homo sapiens, UniProt P36544, E184Q, form not given). It is filed as cell-based. The note with it: read-out: IC50 at α7^EM nAChR mutant E184Q.
For data set [4], the target named is α7^EM nAChR S56A (Homo sapiens, UniProt P36544, S56A, form not given). It is filed as cell-based. As to conditions: read-out: IC50 at α7^EM nAChR mutant S56A.
Chain of α7^EM nAChR S56A (P36544 23-502 S56A, form open): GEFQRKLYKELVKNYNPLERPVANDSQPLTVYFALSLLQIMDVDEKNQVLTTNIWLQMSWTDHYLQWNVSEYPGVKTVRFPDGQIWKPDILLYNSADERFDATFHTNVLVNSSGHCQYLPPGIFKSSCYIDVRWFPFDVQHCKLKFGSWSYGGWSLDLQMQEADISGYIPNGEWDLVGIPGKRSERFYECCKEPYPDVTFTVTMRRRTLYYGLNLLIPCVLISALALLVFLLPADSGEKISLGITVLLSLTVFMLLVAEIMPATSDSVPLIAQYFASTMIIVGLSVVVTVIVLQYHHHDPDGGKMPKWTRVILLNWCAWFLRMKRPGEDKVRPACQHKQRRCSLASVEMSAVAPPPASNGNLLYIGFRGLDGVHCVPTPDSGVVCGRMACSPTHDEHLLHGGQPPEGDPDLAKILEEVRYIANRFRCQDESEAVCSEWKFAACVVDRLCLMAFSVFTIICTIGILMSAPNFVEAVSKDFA
Data set [5] has as its target α7^EM nAChR Q139E (Homo sapiens, UniProt P36544, Q139E, form not given). It is filed as cell-based. As to conditions: read-out: IC50 at α7^EM nAChR mutant Q139E.
The target of data set [6] is α7^EM nAChR R208A (Homo sapiens, UniProt P36544, R208A, form not given). It is filed as cell-based. The note with it: read-out: IC50 at α7^EM nAChR mutant R208A.
Chain of α7^EM nAChR R208A (P36544 23-502 R208A, form open): as the sequence (P36544 23-502 S56A, form open) above, with A34S, R186A counted along it
Data set [7] can be described thus: in vitro. The note with it: human, serum.

Chain of α7^EM nAChR (P36544 23-233 limits assumed): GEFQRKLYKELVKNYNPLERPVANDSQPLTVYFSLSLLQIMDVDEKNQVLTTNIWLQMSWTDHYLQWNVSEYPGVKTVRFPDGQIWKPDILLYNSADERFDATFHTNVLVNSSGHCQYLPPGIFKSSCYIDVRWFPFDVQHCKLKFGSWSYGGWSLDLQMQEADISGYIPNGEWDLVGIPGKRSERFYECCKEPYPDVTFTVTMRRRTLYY
Chain of hα7 nAChR (P36544 23-502): as the sequence (P36544 23-502 S56A, form open) above, with A34S counted along it
Chain of α7^EM nAChR Q139E (P36544 23-502 Q139E, form open): as the sequence (P36544 23-502 S56A, form open) above, with A34S, Q117E counted along it
Chain of α7^EM nAChR E184Q (P36544 23-502 E184Q, form open): as the sequence (P36544 23-502 S56A, form open) above, with A34S, E162Q counted along it

As for `N=C(N)NCCC[C@@H]1NC(=O)[C@H](CO)NC(=O)[C@H](Cc2c[nH]c3ccccc23)NC(=O)[C@H](Cc2c[nH]c3ccccc23)NC(=O)[C@H](CCCNC(=N)N)NC(=O)[C@@H](NC(=O)[C@H](CCCNC(=N)N)NC(=O)[C@@H]2CCCN2C(=O)[C@@H](N)CCC(N)=O)CSSC[C@@H](C(N)=O)NC(=O)[C@H](Cc2c[nH]c3ccccc23)NC1=O` [[G3R]SS1] (H-QPRCRWWSRWC-NH2; disulfide 4-11), the “potency at hα7 nAChR relative to parent peptide (in words)” value in data set [1] was “no significant differences”.

On to `N=C(N)NCCC[C@@H]1NC(=O)[C@@H](NC(=O)CNC(=O)[C@H](CCCNC(=N)N)NC(=O)[C@@H](N)CCC(N)=O)CSSC[C@@H](C(N)=O)NC(=O)[C@H](Cc2c[nH]c3ccccc23)NC(=O)[C@H](CCCNC(=N)N)NC(=O)[C@H](CO)NC(=O)[C@H](Cc2c[nH]c3ccccc23)NC(=O)[C@H](Cc2c[nH]c3ccccc23)NC1=O` [[P2R]SS1] (H-QRGCRWWSRWC-NH2; disulfide 4-11), for which the “potency at hα7 nAChR relative to parent peptide (in words)” value in data set [1] was “no significant differences”.

Regarding `N=C(N)NCCC[C@@H]1NC(=O)[C@@H](NC(=O)CNC(=O)[C@@H]2CCCN2C(=O)[C@@H](N)CCC(=O)O)CSSC[C@@H](C(N)=O)NC(=O)[C@H](Cc2c[nH]c3ccccc23)NC(=O)[C@H](CCCNC(=N)N)NC(=O)[C@H](CCCNC(=N)N)NC(=O)[C@H](Cc2c[nH]c3ccccc23)NC(=O)[C@H](Cc2c[nH]c3ccccc23)NC1=O` [[Q1E, S8R]SS1] (H-EPGCRWWRRWC-NH2; disulfide 4-11), in data set [2], the IC50 stood at 364 ± 103 nM and the “increase in potency versus [S8R]SS1 at α7^EM nAChR” value is 1.8 fold.

Turning to `N=C(N)NCCC[C@@H]1NC(=O)[C@@H](NC(=O)CNC(=O)[C@@H]2CCCN2C(=O)[C@@H]2CCC(=O)N2)CSSC[C@@H](C(N)=O)NC(=O)[C@H](Cc2c[nH]c3ccccc23)NC(=O)[C@H](CCCNC(=N)N)NC(=O)[C@H](CCCNC(=N)N)NC(=O)[C@H](Cc2c[nH]c3ccccc23)NC(=O)[C@H](Cc2c[nH]c3ccccc23)NC1=O` [[Q1Pyr, S8R]SS1] ([pGlu]PGCRWWRRWC-NH2; disulfide 4-11), the IC50 in data set [2] worked out at 1390 ± 260 nM.

With `N=C(N)NCCC[C@@H]1NC(=O)[C@@H](NC(=O)CNC(=O)[C@@H]2CCCN2C(=O)[C@@H](N)CCCNC(=N)N)CSSC[C@@H](C(N)=O)NC(=O)[C@H](Cc2c[nH]c3ccccc23)NC(=O)[C@H](CCCNC(=N)N)NC(=O)[C@H](CCCNC(=N)N)NC(=O)[C@H](Cc2c[nH]c3ccccc23)NC(=O)[C@H](Cc2c[nH]c3ccccc23)NC1=O` [[Q1R, S8R]SS1] (H-RPGCRWWRRWC-NH2; disulfide 4-11), in data set [2], 136 ± 27.8 nM corresponded to half-maximal inhibition (IC50) and the “increase in potency versus [S8R]SS1 at α7^EM nAChR” value is reported as 4.8 fold.

On to `N=C(N)NCCC[C@@H]1NC(=O)[C@@H](NC(=O)CNC(=O)[C@@H]2CCCN2C(=O)[C@@H](N)CCCNC(=N)N)CSSC[C@@H](C(N)=O)NC(=O)[C@H](Cc2c[nH]c3ccccc23)NC(=O)[C@H](CCCNC(=N)N)NC(=O)[C@H](CO)NC(=O)[C@H](Cc2c[nH]c3ccccc23)NC(=O)[C@H](Cc2c[nH]c3ccccc23)NC1=O` [[Q1R]SS1] (H-RPGCRWWSRWC-NH2; disulfide 4-11), for which the “potency at hα7 nAChR relative to parent peptide (in words)” value in data set [1] is listed as “no significant differences”.

For `N=C(N)NCCC[C@@H]1NC(=O)[C@@H](NC(=O)CNC(=O)[C@@H]2CCCN2C(=O)[C@@H](N)CCC(N)=O)CSSC[C@@H](C(N)=O)NC(=O)[C@H](Cc2c[nH]c3ccccc23)NC(=O)[C@H](CCCNC(=N)N)NC(=O)[C@H](CCCNC(=N)N)NC(=O)[C@H](Cc2c[nH]c3ccccc23)NC(=O)[C@H](Cc2c[nH]c3ccccc23)NC1=O` [[S8R]SS1] (H-QPGCRWWRRWC-NH2; disulfide 4-11), the IC50 in data set [3] was determined as 555 ± 99.9 nM; in data set [2] it was 659 ± 92.9 nM; in data set [4], 234 ± 36.1 nM; in data set [5], 852 ± 66.3 nM; in data set [6], 1930 ± 196 nM.

Turning to `N=C(N)NCCC[C@@H]1NC(=O)[C@@H](NC(=O)CNC(=O)[C@@H]2CCCN2C(=O)[C@@H](N)CCC(N)=O)CSSC[C@@H](C(N)=O)NC(=O)[C@H](Cc2c[nH]c3ccccc23)NC(=O)[C@H](CCCNC(=N)N)NC(=O)[C@H](CCCNC(=N)N)NC(=O)[C@H](Cc2c[nH]c3ccccc23)NC(=O)[C@H](CCCNC(=N)N)NC1=O` [[W6R, S8R]SS1] (H-QPGCRRWRRWC-NH2; disulfide 4-11), the “potency of [S8R]SS1 analogues at hα7 nAChR relative to [S8R]SS1 (in words)” value in data set [1] (n = 8-10) is given as “maintained potency”.

Regarding `N=C(N)NCCC[C@@H]1NC(=O)[C@@H](NC(=O)CNC(=O)[C@@H]2CCCN2C(=O)[C@@H](N)CCC(N)=O)CSSC[C@@H](C(N)=O)NC(=O)[C@H](Cc2c[nH]c3ccccc23)NC(=O)[C@H](CCCNC(=N)N)NC(=O)[C@H](CO)NC(=O)[C@H](Cc2c[nH]c3ccccc23)NC(=O)[C@H](CCCNC(=N)N)NC1=O` [[W6R]SS1] (H-QPGCRRWSRWC-NH2; disulfide 4-11), in data set [1], the “potency at hα7 nAChR relative to parent peptide (in words)” value was “completely lost potency”.

Consider `N=C(N)NCCC[C@@H]1NC(=O)[C@@H](NC(=O)CNC(=O)[C@@H]2CCCN2C(=O)[C@@H](N)CCC(N)=O)CSSC[C@@H](C(N)=O)NC(=O)[C@H](Cc2c[nH]c3ccccc23)NC(=O)[C@H](CCCNC(=N)N)NC(=O)[C@H](CO)NC(=O)[C@H](CCCNC(=N)N)NC(=O)[C@H](Cc2c[nH]c3ccccc23)NC1=O` [[W7R]SS1] (H-QPGCRWRSRWC-NH2; disulfide 4-11), for which the “potency at hα7 nAChR relative to parent peptide (in words)” value in data set [1] is reported as “no significant differences”.

As to `N=C(N)NCCC[C@@H]1NC(=O)[C@@H](NC(=O)CN)CSSC[C@@H](C(N)=O)NC(=O)[C@H](Cc2c[nH]c3ccccc23)NC(=O)[C@H](CCCNC(=N)N)NC(=O)[C@H](CCCNC(=N)N)NC(=O)[C@H](Cc2c[nH]c3ccccc23)NC(=O)[C@H](Cc2c[nH]c3ccccc23)NC1=O` [[ΔQP, S8R]SS1] (H-GCRWWRRWC-NH2; disulfide 2-9), in data set [1], inhibition was half-maximal at 49.2 nM (IC50) and the “increase in potency compared to SS1” value is reported as about 29 fold. For the same compound, the amount remaining at 24 h in data set [7] was 14%.
